# Experimental data from patent US20260250318A1, “COMPOSITIONS AND METHODS FOR CROSSING THE BLOOD BRAIN BARRIER” (VOYAGER THERAPEUTICS, INC., priority 2022, published 2026).
# What was measured:
# [1] = test system: brain; experiment: Matured TTM-001 and TTM-002 variants, NGS enrichment in mouse brain; assay type: in vivo, mice; conditions: relative to AAV9 control
# [2] = test system: brains, heart, liver, muscle, and DRG of the NHPs; experiment: Maturation of TTM-001 and TTM-002 capsids, NGS enrichment in NHP tissues; assay type: in vivo; conditions: relative to AAV9 control
# In short: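 Variants carry mutations within and flanking the loop IV peptide insert: positions 450–466 were triplet-randomized, while positions 449–466 received low-frequency point mutations. The combined pool went into two NHPs, and each peptide was scored by NGS enrichment ratio against AAV9.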
# [3] = NGS fold-enrichment of matured AAV capsid variants, NHP brain, RNA
# [4] = NGS fold-enrichment, brain of mice
# [5] = NGS fold-enrichment, DRG of NHPs
# [6] = NGS fold-enrichment, RNA, brain of NHPs
# [7] = NGS fold-enrichment, heart of NHPs
# [8] = NGS fold-enrichment, liver DNA of NHPs
# [9] = NGS fold-enrichment, liver RNA of NHPs
# [10] = NGS fold-enrichment, muscle of NHPs
# [11] = NGS fold-enrichment, mouse brain
# [12] = NGS fold-enrichment of RNA, NHP brain
# [13] = NGS fold-enrichment, NHP liver DNA
# [14] = NGS fold-enrichment, NHP liver RNA
# [15] = NGS fold-enrichment, NHP muscle
Sequence,"Fold Enrichment relative to AAV9, Brain (Mouse) ([1]; mouse brain) [fold]","Fold Enrichment relative to AAV9, Brain (NHP) [2, 3] [fold]","Fold Enrichment relative to AAV9, DRG (NHP) ([2]; NHP DRG) [fold]","Fold Enrichment relative to AAV9, Heart (NHP) ([2]; NHP heart) [fold]","Fold Enrichment relative to AAV9, Liver DNA (NHP) ([2]; NHP liver, DNA) [fold]","Fold Enrichment relative to AAV9, Liver RNA (NHP) ([2]; NHP liver, RNA) [fold]","Fold Enrichment relative to AAV9, Muscle (NHP) ([2]; NHP muscle) [fold]",other results
KTINGSGSPHSKAQSTMT,73.213,51.249,0.018,0.002,0.341,0.321,0.002,
KTINGSGSPHSKAQSVHT,76.110,53.226,0.000,0.004,0.217,0.446,0.000,
KTINGSGSPHSKAQTPPT,,,,,,,,"Fold Enrichment relative to AAV9, Brain (Mouse) [1, 4]: 54.179 fold; Fold Enrichment relative to AAV9, DRG (NHP) [2, 5]: 0.010 fold; Fold Enrichment relative to AAV9, Brain (NHP) [2, 6]: 64.657 fold; Fold Enrichment relative to AAV9, Heart (NHP) [2, 7]: 0.015 fold; Fold Enrichment relative to AAV9, Liver DNA (NHP) [2, 8]: 0.207 fold; Fold Enrichment relative to AAV9, Liver RNA (NHP) [2, 9]: 0.200 fold; Fold Enrichment relative to AAV9, Muscle (NHP) [2, 10]: 0.014 fold"
KTINGSGSPHSKAQVGHT,106.448,52.624,0.000,0.000,0.192,0.535,0.006,
KTINGSGSPHSKAQVPAT,137.743,54.475,0.000,0.002,0.223,0.782,0.000,
KTINGSGSPHSKAQVPPT,90.220,57.316,0.000,0.012,0.200,0.257,0.000,
KTINGSGSPHSKAQVPST,117.223,54.366,0.000,1.001,0.139,0.202,0.000,
KTINGSGSPHSKAQVQQI,61.957,57.308,0.000,1.113,0.113,0.000,0.000,
KTINGSGSPHSKAQVRNT,68.893,52.735,0.000,0.101,0.423,0.230,0.011,
KTINGSGSPHSKAQYIHT,,,,,,,,"Fold Enrichment relative to AAV9, Brain (Mouse) [1, 4]: 59.649 fold; Fold Enrichment relative to AAV9, Brain (Mouse) [1, 11]: 59.649 fold; Fold Enrichment relative to AAV9, Brain (NHP) [2, 12]: 76.170 fold; Fold Enrichment relative to AAV9, DRG (NHP) [2, 5]: 0.000 fold; Fold Enrichment relative to AAV9, DRG (NHP) ([2]; NGS fold-enrichment, NHP DRG): 0.000 fold; Fold Enrichment relative to AAV9, Heart (NHP) ([2]; NGS fold-enrichment, NHP heart): 0.014 fold; Fold Enrichment relative to AAV9, Liver DNA (NHP) [2, 13]: 0.168 fold; Fold Enrichment relative to AAV9, Liver RNA (NHP) [2, 14]: 1.523 fold; Fold Enrichment relative to AAV9, Muscle (NHP) [2, 15]: 0.033 fold; Fold Enrichment relative to AAV9, Brain (NHP) [2, 6]: 76.170 fold; Fold Enrichment relative to AAV9, Heart (NHP) [2, 7]: 0.014 fold; Fold Enrichment relative to AAV9, Liver DNA (NHP) [2, 8]: 0.168 fold; Fold Enrichment relative to AAV9, Liver RNA (NHP) [2, 9]: 1.523 fold; Fold Enrichment relative to AAV9, Muscle (NHP) [2, 10]: 0.033 fold"
KTINGSGSPHSKAQYQHA,,,,,,,,"Fold Enrichment relative to AAV9, Brain (Mouse) [1, 4]: 57.278 fold; Fold Enrichment relative to AAV9, DRG (NHP) [2, 5]: 0.000 fold; Fold Enrichment relative to AAV9, Brain (NHP) [2, 6]: 64.435 fold; Fold Enrichment relative to AAV9, Heart (NHP) [2, 7]: 0.000 fold; Fold Enrichment relative to AAV9, Liver DNA (NHP) [2, 8]: 0.097 fold; Fold Enrichment relative to AAV9, Liver RNA (NHP) [2, 9]: 0.993 fold; Fold Enrichment relative to AAV9, Muscle (NHP) [2, 10]: 0.024 fold"
KTINGSGSPHSKAQYQNT,71.846,50.099,0.000,0.008,0.119,0.017,0.000,
KTINGSGSPHSKAQYRAT,50.650,51.008,0.000,0.158,0.120,0.690,0.000,
KTINGSGSPHSKAQYSVT,60.023,57.130,0.000,0.093,0.302,1.235,0.000,
KTINGSGSPHSKARDWQT,120.704,58.216,0.000,0.005,0.259,0.800,0.000,
KTINGSGSPHSKARGEQT,128.098,54.207,0.025,0.006,0.327,0.309,0.005,
KTINGSGSPHSKARGLQT,169.881,52.275,0.000,0.000,1.425,1.235,0.036,
KTINGSGSPHSKASPRQT,67.241,50.227,0.088,0.005,0.530,1.761,0.068,
KTINGSGSPHSKGHWQQT,,,,,,,,"Fold Enrichment relative to AAV9, Brain (Mouse) [1, 4]: 65.252 fold; Fold Enrichment relative to AAV9, Brain (Mouse) [1, 11]: 65.252 fold; Fold Enrichment relative to AAV9, Brain (NHP) [2, 12]: 81.434 fold; Fold Enrichment relative to AAV9, DRG (NHP) [2, 5]: 0.000 fold; Fold Enrichment relative to AAV9, DRG (NHP) ([2]; NGS fold-enrichment, NHP DRG): 0.000 fold; Fold Enrichment relative to AAV9, Heart (NHP) ([2]; NGS fold-enrichment, NHP heart): 0.000 fold; Fold Enrichment relative to AAV9, Liver DNA (NHP) [2, 13]: 1.011 fold; Fold Enrichment relative to AAV9, Liver RNA (NHP) [2, 14]: 0.000 fold; Fold Enrichment relative to AAV9, Muscle (NHP) [2, 15]: 0.000 fold; Fold Enrichment relative to AAV9, Brain (NHP) [2, 6]: 81.434 fold; Fold Enrichment relative to AAV9, Heart (NHP) [2, 7]: 0.000 fold; Fold Enrichment relative to AAV9, Liver DNA (NHP) [2, 8]: 1.011 fold; Fold Enrichment relative to AAV9, Liver RNA (NHP) [2, 9]: 0.000 fold; Fold Enrichment relative to AAV9, Muscle (NHP) [2, 10]: 0.000 fold"
KTINGSGSPHSKGQNPPT,,,,,,,,"Fold Enrichment relative to AAV9, Brain (Mouse) [1, 4]: 134.808 fold; Fold Enrichment relative to AAV9, DRG (NHP) [2, 5]: 0.000 fold; Fold Enrichment relative to AAV9, Brain (NHP) [2, 6]: 72.339 fold; Fold Enrichment relative to AAV9, Heart (NHP) [2, 7]: 0.206 fold; Fold Enrichment relative to AAV9, Liver DNA (NHP) [2, 8]: 0.041 fold; Fold Enrichment relative to AAV9, Liver RNA (NHP) [2, 9]: 0.000 fold; Fold Enrichment relative to AAV9, Muscle (NHP) [2, 10]: 0.000 fold"
KTINGSGSPHSKLKSQQT,95.240,50.368,0.000,0.296,1.096,1.796,0.000,
KTINGSGSPHSKLQKQQT,61.833,52.144,0.615,0.477,0.429,1.113,1.071,
